Values quoted from earlier work as cited in patent US20170240913A1, “Methods and Materials for Producing Coreless Fruit” (The New Zealand Institute for Plant and Food Research …, priority 2014, published 2017).

Tested on: frost-damaged Bramley's Seedling
Conditions: frost-damaged Bramley's Seedling (triploid, partially self-fertile)

SMILES | parthenocarpy
C=C1C[C@]23C[C@@]1(O)CC[C@H]2[C@@]12C=C[C@H](O)[C@@](C)(C(=O)O1)[C@H]2[C@@H]3C(=O)O [GA3] | not effective
c1ccc(CNc2ncnc3c2ncn3C2CCCCO2)cc1 (centres unmarked) [SD8339] | no additional benefits
